Measured values taken from patent publication US20080009418A1, “Selective Inhibitors” (Alchemia LTD., priority 2004, published 2008).

Experiments:
Settings in all cases: compound at 10 μM
Human δ-opioid (DOP) = target: T1, Human δ-opioid (DOP) (Homo sapiens, UniProt P41143); assay: Radioligand binding, human δ-opioid (DOP) membranes, FlashPlate, [3H]-Bremazocine
T1 construct: purchased Perkin Elmer Biosignal
Summary of the method: (§1)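 Cloned human receptor membranes were coated onto FlashPlate wells and incubated with radioligand and compound (added from a 0.5 mM DMSO daughter plate) for 1 hour at room temperature in the dark. Scintillation counting gave percent inhibition, with DMSO defining total and reference ligand defining non-specific binding.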

Mouse urotensin (mUR2) = target: T2, Mouse urotensin (mUR2) (Mus musculus, UniProt Q8VIH9); assay: Radioligand binding, mouse urotensin mUR2 membranes, FlashPlate, [125I]-Urotensin II
T2 construct: purchased Perkin Elmer Biosignal
T2 sequence (Q8VIH9 1-385): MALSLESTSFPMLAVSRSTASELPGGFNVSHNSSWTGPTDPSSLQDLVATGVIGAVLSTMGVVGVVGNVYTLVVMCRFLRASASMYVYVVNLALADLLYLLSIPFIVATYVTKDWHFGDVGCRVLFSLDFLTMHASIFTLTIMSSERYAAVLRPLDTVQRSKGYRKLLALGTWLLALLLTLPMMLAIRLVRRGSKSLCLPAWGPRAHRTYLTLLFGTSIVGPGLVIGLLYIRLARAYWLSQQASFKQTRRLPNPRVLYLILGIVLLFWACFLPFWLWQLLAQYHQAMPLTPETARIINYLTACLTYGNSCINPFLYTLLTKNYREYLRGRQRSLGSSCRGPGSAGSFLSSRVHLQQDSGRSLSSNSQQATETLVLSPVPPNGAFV
Summary of the method: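 Cloned mouse urotensin (mUR2) receptor membranes from Perkin Elmer Biosignal were immobilized in FlashPlate microplates using a proprietary coating. Each well got 19.5 μl buffer, then 0.5 μl of DMSO, reference ligand, or compound. Adding 5 μl of [125I]-Urotensin II, diluted to 5× final concentration in binding buffer, started binding. Plates were sealed with TopSeal-A and incubated 1 hour at room temperature in the dark. Wells were counted for 30 seconds each on a TopCount after a 60-second delay, and percentage inhibition was calculated.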

Human κ-Opioid (KOP) = target: T3, Human κ-Opioid (KOP) (Homo sapiens, UniProt P41145); assay: Radioligand binding, human κ-opioid (KOP) membranes, filtration, [3H]-Diprenorphine
T3 construct: purchased Perkin Elmer Biosignal
T3 sequence (P41145 whole entry): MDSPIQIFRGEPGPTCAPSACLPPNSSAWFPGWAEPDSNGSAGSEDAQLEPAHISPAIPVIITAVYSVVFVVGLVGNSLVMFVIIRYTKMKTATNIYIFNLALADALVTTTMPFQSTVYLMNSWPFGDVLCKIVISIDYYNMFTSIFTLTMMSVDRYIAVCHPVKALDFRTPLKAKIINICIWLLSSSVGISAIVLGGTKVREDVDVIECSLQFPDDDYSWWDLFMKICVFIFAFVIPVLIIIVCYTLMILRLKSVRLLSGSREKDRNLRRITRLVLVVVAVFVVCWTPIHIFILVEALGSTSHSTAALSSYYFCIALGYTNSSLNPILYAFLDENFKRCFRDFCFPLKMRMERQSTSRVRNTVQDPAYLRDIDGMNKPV
Summary of the method: (§2)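 Membranes from cloned human receptors were incubated with compound and radioligand for 1 hour at room temperature. Bound ligand was collected on 0.3% PEI-soaked filters, washed with cold 50 mM Tris-HCl pH 7.4, and counted by scintillation. Percent inhibition was computed against DMSO totals and reference-ligand nonspecific wells.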

[1] = target: T4, Human neuropeptide Y (NPY-Y1) (Homo sapiens, UniProt P25929); assay: Radioligand binding, human neuropeptide Y NPY-Y1 membranes, FlashPlate, [125I]-PYY
T4 construct: purchased Perkin Elmer Biosignal
T4 sequence (P25929 1-384): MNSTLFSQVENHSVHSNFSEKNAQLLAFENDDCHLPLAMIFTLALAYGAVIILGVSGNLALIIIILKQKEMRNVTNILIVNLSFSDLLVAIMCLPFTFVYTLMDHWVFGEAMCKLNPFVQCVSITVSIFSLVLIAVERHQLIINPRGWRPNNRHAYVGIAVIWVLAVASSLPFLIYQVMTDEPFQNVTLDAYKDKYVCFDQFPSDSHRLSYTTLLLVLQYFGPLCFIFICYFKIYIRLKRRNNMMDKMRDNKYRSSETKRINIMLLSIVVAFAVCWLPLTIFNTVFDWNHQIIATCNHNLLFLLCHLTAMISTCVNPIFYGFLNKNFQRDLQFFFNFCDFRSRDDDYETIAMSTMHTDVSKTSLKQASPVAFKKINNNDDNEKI
Summary of the method: as §1

Human melanocortin (MC5) = target: T5, Human melanocortin (MC5) (Homo sapiens, UniProt P33032); assay: Radioligand binding, human melanocortin MC5 membranes, FlashPlate, [125I]-NDP-αMSH
T5 construct: purchased Perkin Elmer Biosignal
T5 sequence (P33032 whole entry): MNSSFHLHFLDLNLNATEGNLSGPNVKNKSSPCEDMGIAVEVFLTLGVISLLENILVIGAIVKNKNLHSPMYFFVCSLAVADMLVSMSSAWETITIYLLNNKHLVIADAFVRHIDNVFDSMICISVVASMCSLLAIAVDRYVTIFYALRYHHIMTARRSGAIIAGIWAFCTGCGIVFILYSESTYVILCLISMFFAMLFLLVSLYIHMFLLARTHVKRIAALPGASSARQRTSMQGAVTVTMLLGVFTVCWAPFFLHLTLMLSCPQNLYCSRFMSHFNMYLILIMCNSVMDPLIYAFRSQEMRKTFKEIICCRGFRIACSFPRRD
Summary of the method: as §1

Human neurokinin (NK1) = target: T6, Human neurokinin (NK1) (Homo sapiens, UniProt P25103); assay: Radioligand binding, human neurokinin NK1 membranes, filtration, [125I]-Substance P
T6 construct: purchased Perkin Elmer Biosignal
T6 sequence (P25103 whole entry): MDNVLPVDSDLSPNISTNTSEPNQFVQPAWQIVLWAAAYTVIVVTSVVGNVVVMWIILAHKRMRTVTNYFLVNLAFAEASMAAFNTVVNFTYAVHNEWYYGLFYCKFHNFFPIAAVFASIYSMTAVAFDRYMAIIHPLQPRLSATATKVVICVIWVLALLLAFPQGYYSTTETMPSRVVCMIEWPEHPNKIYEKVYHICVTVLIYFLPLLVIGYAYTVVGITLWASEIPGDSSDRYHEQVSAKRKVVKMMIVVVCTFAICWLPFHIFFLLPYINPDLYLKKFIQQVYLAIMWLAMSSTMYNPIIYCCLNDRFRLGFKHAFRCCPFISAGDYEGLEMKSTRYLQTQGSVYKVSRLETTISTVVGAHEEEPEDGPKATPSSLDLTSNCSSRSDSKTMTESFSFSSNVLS
Summary of the method: as §2

Human opioid (ORL1) = target: T7, Human opioid (ORL1) (Homo sapiens, UniProt P41146); assay: Radioligand binding, human opioid ORL1 membranes, FlashPlate, [125I]-Nociceptin
T7 construct: purchased Perkin Elmer Biosignal
T7 sequence (P41146 whole entry): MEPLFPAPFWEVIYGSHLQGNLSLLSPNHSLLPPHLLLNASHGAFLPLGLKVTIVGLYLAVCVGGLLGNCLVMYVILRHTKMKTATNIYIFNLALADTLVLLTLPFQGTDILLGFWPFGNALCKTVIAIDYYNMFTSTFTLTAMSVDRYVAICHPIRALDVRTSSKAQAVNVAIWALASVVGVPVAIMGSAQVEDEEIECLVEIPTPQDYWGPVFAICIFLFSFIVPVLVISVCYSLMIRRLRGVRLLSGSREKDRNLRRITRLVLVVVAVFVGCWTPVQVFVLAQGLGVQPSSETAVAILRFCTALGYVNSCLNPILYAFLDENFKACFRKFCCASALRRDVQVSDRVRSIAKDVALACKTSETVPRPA
Summary of the method: as §1

Human Melanocortin (MC3) = target: T8, Human Melanocortin (MC3) (Homo sapiens, UniProt P41968); assay: Radioligand binding, human melanocortin MC3 membranes, FlashPlate, [125I]-NDP-αMSH
T8 construct: purchased Perkin Elmer Biosignal
T8 sequence (P41968 whole entry): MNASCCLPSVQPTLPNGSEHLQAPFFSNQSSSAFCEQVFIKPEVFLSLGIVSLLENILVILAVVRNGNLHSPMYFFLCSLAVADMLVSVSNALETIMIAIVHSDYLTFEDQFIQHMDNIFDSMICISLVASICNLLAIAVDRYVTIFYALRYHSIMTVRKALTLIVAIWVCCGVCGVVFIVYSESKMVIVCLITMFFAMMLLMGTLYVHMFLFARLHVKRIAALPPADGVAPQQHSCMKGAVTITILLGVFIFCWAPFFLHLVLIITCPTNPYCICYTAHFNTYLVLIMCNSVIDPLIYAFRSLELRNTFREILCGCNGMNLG
Summary of the method: as §1

Human μ-opioid (MOP) = target: T9, Human μ-opioid (MOP) (Homo sapiens, UniProt P35372); assay: Radioligand binding, human μ-opioid (MOP) membranes, FlashPlate, [3H]-Naloxone
T9 construct: purchased Perkin Elmer Biosignal
T9 sequence (P35372 whole entry): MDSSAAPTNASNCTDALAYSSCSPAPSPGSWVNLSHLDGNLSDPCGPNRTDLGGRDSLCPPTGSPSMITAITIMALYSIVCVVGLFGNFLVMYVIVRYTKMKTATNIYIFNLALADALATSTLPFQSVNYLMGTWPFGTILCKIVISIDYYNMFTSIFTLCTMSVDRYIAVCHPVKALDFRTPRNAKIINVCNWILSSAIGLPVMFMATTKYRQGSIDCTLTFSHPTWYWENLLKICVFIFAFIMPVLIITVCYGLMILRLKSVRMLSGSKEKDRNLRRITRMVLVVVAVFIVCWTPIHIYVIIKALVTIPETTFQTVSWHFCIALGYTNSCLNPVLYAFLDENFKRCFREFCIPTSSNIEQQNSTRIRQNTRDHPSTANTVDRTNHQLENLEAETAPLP
Summary of the method: as §1

[2] = target: T10, Human melanin-concentrating hormone (MCH1) (Homo sapiens, UniProt Q99705); assay: Radioligand binding, human melanin-concentrating hormone MCH1 membranes, FlashPlate, [125I]-S36057
T10 construct: purchased Perkin Elmer Biosignal
T10 sequence (Q99705 whole entry): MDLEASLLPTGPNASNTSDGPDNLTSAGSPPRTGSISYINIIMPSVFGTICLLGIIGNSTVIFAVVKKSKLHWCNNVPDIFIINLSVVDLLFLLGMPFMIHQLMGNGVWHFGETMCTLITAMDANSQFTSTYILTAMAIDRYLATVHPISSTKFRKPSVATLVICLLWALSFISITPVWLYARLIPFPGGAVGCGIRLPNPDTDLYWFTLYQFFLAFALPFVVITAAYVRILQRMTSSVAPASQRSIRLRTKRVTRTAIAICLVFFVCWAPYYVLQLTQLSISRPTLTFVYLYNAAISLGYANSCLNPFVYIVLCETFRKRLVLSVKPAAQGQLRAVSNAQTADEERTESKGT
Summary of the method: as §1

Human Melanocortin (MC4) = target: T11, Human Melanocortin (MC4) (Homo sapiens, UniProt P32245); assay: Radioligand binding, human melanocortin MC4 membranes, FlashPlate, [125I]-NDP-αMSH
T11 construct: purchased Perkin Elmer Biosignal
T11 sequence (P32245 whole entry): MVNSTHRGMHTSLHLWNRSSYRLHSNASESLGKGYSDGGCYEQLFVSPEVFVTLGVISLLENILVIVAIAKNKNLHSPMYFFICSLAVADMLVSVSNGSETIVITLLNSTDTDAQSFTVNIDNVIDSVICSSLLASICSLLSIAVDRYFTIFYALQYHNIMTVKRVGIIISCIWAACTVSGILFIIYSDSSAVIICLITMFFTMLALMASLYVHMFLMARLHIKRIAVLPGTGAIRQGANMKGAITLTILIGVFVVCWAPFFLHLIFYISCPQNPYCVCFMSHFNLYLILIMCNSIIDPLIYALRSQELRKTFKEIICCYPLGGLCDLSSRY
Summary of the method: as §1

T1 sequence (P41143 whole entry): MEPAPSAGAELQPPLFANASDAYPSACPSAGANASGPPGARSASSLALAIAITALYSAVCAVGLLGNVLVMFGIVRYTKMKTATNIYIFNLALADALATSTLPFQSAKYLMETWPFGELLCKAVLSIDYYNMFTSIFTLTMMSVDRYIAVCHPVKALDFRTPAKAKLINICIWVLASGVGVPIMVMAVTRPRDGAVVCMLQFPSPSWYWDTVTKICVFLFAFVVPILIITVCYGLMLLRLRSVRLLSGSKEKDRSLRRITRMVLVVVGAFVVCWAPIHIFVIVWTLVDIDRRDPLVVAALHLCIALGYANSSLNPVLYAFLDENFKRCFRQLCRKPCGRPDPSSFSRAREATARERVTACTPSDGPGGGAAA

Compound: CO[C@H]1[C@H](O)[C@@H](COCc2ccc3ccccc3c2)OC(OCc2ccc(Cl)cc2)[C@@H]1NC(=O)C(N)CN (stereo partly shown) [compound 351]
- A1: inhibition of radioligand binding, human δ-opioid (DOP) (Human δ-opioid (DOP); [3H]-Bremazocine): − (“−” indicates less than 50% inhibition at 10 μM)
- A11: inhibition of radioligand binding, mouse urotensin (mUR2) (Mouse urotensin (mUR2); [125I]-Urotensin II): − (“−” indicates less than 50% inhibition at 10 μM)
- A2: inhibition of radioligand binding, human κ-opioid (KOP) (Human κ-Opioid (KOP); [3H]-Diprenorphine): − (“−” indicates less than 50% inhibition at 10 μM)
- A9: inhibition of radioligand binding, human neuropeptide Y (NPY-Y1) ([1]; [125I]-PYY): − (“−” indicates less than 50% inhibition at 10 μM)
- A5: inhibition of radioligand binding, human melanocortin (MC5) (Human melanocortin (MC5); [125I]-NDP-αMSH): − (“−” indicates less than 50% inhibition at 10 μM)
- A8: inhibition of radioligand binding, human neurokinin (NK1) (Human neurokinin (NK1); [125I]-Substance P): + (“+” indicates greater than 50% inhibition at 10 μM)
- A10: inhibition of radioligand binding, human opioid (ORL1) (Human opioid (ORL1); [125I]-Nociceptin): − (“−” indicates less than 50% inhibition at 10 μM)
- A3: inhibition of radioligand binding, human melanocortin (MC3) (Human Melanocortin (MC3); [125I]-NDP-αMSH): − (“−” indicates less than 50% inhibition at 10 μM)
- A7: inhibition of radioligand binding, human μ-opioid (MOP) (Human μ-opioid (MOP); [3H]-Naloxone): − (“−” indicates less than 50% inhibition at 10 μM)
- A6: inhibition of radioligand binding, human melanin-concentrating hormone (MCH1) ([2]; [125I]-S36057): − (“−” indicates less than 50% inhibition at 10 μM)
- A4: inhibition of radioligand binding, human melanocortin (MC4) (Human Melanocortin (MC4); [125I]-NDP-αMSH): − (“−” indicates less than 50% inhibition at 10 μM)

Compound: CSC1OC(COCc2ccc3ccccc3c2)C(O)C(OCc2ccc3ccccc3c2)C1NC(=O)CCNC(=N)N (stereo not shown) [compound 319]
- A1: inhibition of radioligand binding, human δ-opioid (DOP) (Human δ-opioid (DOP); [3H]-Bremazocine): − (“−” indicates less than 50% inhibition at 10 μM)
- A11: inhibition of radioligand binding, mouse urotensin (mUR2) (Mouse urotensin (mUR2); [125I]-Urotensin II): − (“−” indicates less than 50% inhibition at 10 μM)
- A2: inhibition of radioligand binding, human κ-opioid (KOP) (Human κ-Opioid (KOP); [3H]-Diprenorphine): − (“−” indicates less than 50% inhibition at 10 μM)
- A9: inhibition of radioligand binding, human neuropeptide Y (NPY-Y1) ([1]; [125I]-PYY): − (“−” indicates less than 50% inhibition at 10 μM)
- A5: inhibition of radioligand binding, human melanocortin (MC5) (Human melanocortin (MC5); [125I]-NDP-αMSH): + (“+” indicates greater than 50% inhibition at 10 μM)
- A8: inhibition of radioligand binding, human neurokinin (NK1) (Human neurokinin (NK1); [125I]-Substance P): + (“+” indicates greater than 50% inhibition at 10 μM)
- A10: inhibition of radioligand binding, human opioid (ORL1) (Human opioid (ORL1); [125I]-Nociceptin): − (“−” indicates less than 50% inhibition at 10 μM)
- A3: inhibition of radioligand binding, human melanocortin (MC3) (Human Melanocortin (MC3); [125I]-NDP-αMSH): − (“−” indicates less than 50% inhibition at 10 μM)
- A7: inhibition of radioligand binding, human μ-opioid (MOP) (Human μ-opioid (MOP); [3H]-Naloxone): − (“−” indicates less than 50% inhibition at 10 μM)
- A6: inhibition of radioligand binding, human melanin-concentrating hormone (MCH1) ([2]; [125I]-S36057): − (“−” indicates less than 50% inhibition at 10 μM)
- A4: inhibition of radioligand binding, human melanocortin (MC4) (Human Melanocortin (MC4); [125I]-NDP-αMSH): + (“+” indicates greater than 50% inhibition at 10 μM)

Compound: COCC1OC(OCc2ccc3ccccc3c2)C(NC(=O)CNC(=N)N)C(OCc2ccccc2)C1O (stereo not shown) [compound 230]
- A1: inhibition of radioligand binding (Human δ-opioid (DOP); [3H]-Bremazocine, FlashPlate): − (“−” indicates less than 50% inhibition at 10 μM)
- A11: inhibition of radioligand binding (Mouse urotensin (mUR2); [125I]-Urotensin II, FlashPlate): − (“−” indicates less than 50% inhibition at 10 μM)
- A2: inhibition of radioligand binding (Human κ-Opioid (KOP); [3H]-Diprenorphine, filtration): − (“−” indicates less than 50% inhibition at 10 μM)
- A9: inhibition of radioligand binding ([1]; [125I]-PYY, FlashPlate): − (“−” indicates less than 50% inhibition at 10 μM)
- A5: inhibition of radioligand binding (Human melanocortin (MC5); [125I]-NDP-αMSH, FlashPlate): + (“+” indicates greater than 50% inhibition at 10 μM)
- A8: inhibition of radioligand binding (Human neurokinin (NK1); [125I]-Substance P, filtration): + (“+” indicates greater than 50% inhibition at 10 μM)
- A10: inhibition of radioligand binding (Human opioid (ORL1); [125I]-Nociceptin, FlashPlate): − (“−” indicates less than 50% inhibition at 10 μM)
- A3: inhibition of radioligand binding (Human Melanocortin (MC3); [125I]-NDP-αMSH, FlashPlate): − (“−” indicates less than 50% inhibition at 10 μM)
- A7: inhibition of radioligand binding (Human μ-opioid (MOP); [3H]-Naloxone, FlashPlate): − (“−” indicates less than 50% inhibition at 10 μM)
- A6: inhibition of radioligand binding ([2]; [125I]-S36057, FlashPlate): − (“−” indicates less than 50% inhibition at 10 μM)
- A4: inhibition of radioligand binding (Human Melanocortin (MC4); [125I]-NDP-αMSH, FlashPlate): − (“−” indicates less than 50% inhibition at 10 μM)

Compound: CO[C@H]1[C@H](O)[C@@H](COCc2cccc(O)c2)OC(OCc2ccccc2)[C@@H]1NC(=O)CCCNC(=N)N (stereo partly shown) [compound 154]
- A1 radioligand binding, percentage inhibition (Human δ-opioid (DOP); [3H]-Bremazocine): − (“−” indicates less than 50% inhibition at 10 μM)
- A11 radioligand binding, percentage inhibition (Mouse urotensin (mUR2); [125I]-Urotensin II): − (“−” indicates less than 50% inhibition at 10 μM)
- A2 radioligand binding, percentage inhibition (Human κ-Opioid (KOP); [3H]-Diprenorphine): − (“−” indicates less than 50% inhibition at 10 μM)
- A9 radioligand binding, percentage inhibition ([1]; [125I]-PYY): − (“−” indicates less than 50% inhibition at 10 μM)
- A5 radioligand binding, percentage inhibition (Human melanocortin (MC5); [125I]-NDP-αMSH): − (“−” indicates less than 50% inhibition at 10 μM)
- A8 radioligand binding, percentage inhibition (Human neurokinin (NK1); [125I]-Substance P): + (“+” indicates greater than 50% inhibition at 10 μM)
- A10 radioligand binding, percentage inhibition (Human opioid (ORL1); [125I]-Nociceptin): − (“−” indicates less than 50% inhibition at 10 μM)
- A3 radioligand binding, percentage inhibition (Human Melanocortin (MC3); [125I]-NDP-αMSH): − (“−” indicates less than 50% inhibition at 10 μM)
- A7 radioligand binding, percentage inhibition (Human μ-opioid (MOP); [3H]-Naloxone): − (“−” indicates less than 50% inhibition at 10 μM)
- A6 radioligand binding, percentage inhibition ([2]; [125I]-S36057): − (“−” indicates less than 50% inhibition at 10 μM)
- A4 radioligand binding, percentage inhibition (Human Melanocortin (MC4); [125I]-NDP-αMSH): − (“−” indicates less than 50% inhibition at 10 μM)

Compound: COC[C@H]1OC(OCc2ccc(Cl)cc2)[C@H](NC(=O)CCNC(=N)N)[C@@H](OCc2ccc3ccccc3c2)[C@@H]1O (stereo partly shown) [compound 32]
- A1 radioligand binding inhibition (Human δ-opioid (DOP); human δ-opioid (DOP) membranes): + (“+” indicates greater than 50% inhibition at 10 μM)
- A11 radioligand binding inhibition (Mouse urotensin (mUR2); mouse urotensin mUR2 membranes): − (“−” indicates less than 50% inhibition at 10 μM)
- A2 radioligand binding inhibition (Human κ-Opioid (KOP); human κ-opioid (KOP) membranes): − (“−” indicates less than 50% inhibition at 10 μM)
- A9 radioligand binding inhibition ([1]; human NPY-Y1 membranes): − (“−” indicates less than 50% inhibition at 10 μM)
- A5 radioligand binding inhibition (Human melanocortin (MC5); human melanocortin MC5 membranes): + (“+” indicates greater than 50% inhibition at 10 μM)
- A8 radioligand binding inhibition (Human neurokinin (NK1); human neurokinin NK1 membranes): + (“+” indicates greater than 50% inhibition at 10 μM)
- A10 radioligand binding inhibition (Human opioid (ORL1); human ORL1 membranes): − (“−” indicates less than 50% inhibition at 10 μM)
- A3 radioligand binding inhibition (Human Melanocortin (MC3); human melanocortin MC3 membranes): − (“−” indicates less than 50% inhibition at 10 μM)
- A7 radioligand binding inhibition (Human μ-opioid (MOP); human μ-opioid (MOP) membranes): − (“−” indicates less than 50% inhibition at 10 μM)
- A6 radioligand binding inhibition ([2]; human MCH1 membranes): − (“−” indicates less than 50% inhibition at 10 μM)
- A4 radioligand binding inhibition (Human Melanocortin (MC4); human melanocortin MC4 membranes): − (“−” indicates less than 50% inhibition at 10 μM)
